“Also recorded” adds a separate entry of the source.
Experiments:
RAW264.7 cells [1] = assay: NO inhibition assay (LPS-stimulated, Griess); assay type: cell-based, murine; conditions: RAW264.7, peptide 30 min, then 100 ng/mL LPS 24 h
Procedure: Figure 4 Influence of melittin derivates on inflammation-associated cell functions. (A,B) For the NO induction assay (A), RAW264.7 cells were treated with melittin peptides in the indicated concentrations for 24 h. For the NO inhibition assay (B), RAW264.7 cells were pretreated with melittin peptides in the indicated concentrations for 30 min and then stimulated with 100 ng/mL LPS for 24 h. NO was detected in the supernatant using the Griess method. […] THP-1 cell adhesion under static conditions. HUVECs were grown to confluence, preincubated with bee venoms for 30 min, and activated with TNF (10 ng/mL) for 24 h. For the leukocyte adhesion assay, untreated THP-1 cells were stained with CellTracker Green and were allowed to adhere to the treated HUVECs for 5 min. The adhesion of leukocytes onto Ecs was quantified by fluorescence measurements for all cell adhesion experiments. Data are expressed as means ± SEM, (A,B) n = 3, (C) n = 2. * p ≤ 0.05 vs. TNF (positive) control.
2 × 10^4 RAW264.7 macrophages/well were plated in a 96-well plate and cultured for 24 h at 37 °C. To investigate if the melittin peptides induce nitrogen oxide (NO) synthesis, the melittin peptides, control (DMSO), and positive control (100 ng/mL lipopolysaccharide (LPS)) were added. To evaluate the effect of melittin peptides on inhibiting NO synthesis, the cells were pre-incubated with peptides or control (DMSO) for 30 min before 100 ng/mL LPS were added. After 24 h supernatants were collected and stored at −80 °C.
NO was determined with the Griess method. Briefly, for the standard curve, different concentrations of sodium nitrite (0–50 µM) were prepared in the medium. A total of 80 µL cell supernatant or standard sample were added to a 96-well microplate and subsequently, 20 µL sulfanilamide solution (120 mg sulfanilamide in 30 mL 1 N hydrochloric acid) and 20 µL naphthylenediamine solution (180 mg N-(1-naphthyl)ethylenediamine dihydrochloride in 30 mL water) were added. After 15 min of incubation, the absorbance (540 nm) was measured with the EnSpire Plate Reader (PerkinElmer, Waltham, MA, USA). For the induction assay, the NO levels of the melittin peptides-treated samples were related to the DMSO-treated sample. For the inhibition assay, the NO levels of the melittin peptides-treated cells were correlated with the LPS-treated samples.

HMEC-1 cells = assay: Proliferation assay (crystal violet) in HMEC-1 cells; assay type: cell-based, human; conditions: HMEC-1, 25 µg/mL, 72 h, n = 2–3
Procedure: (§1) Figure 1 Toxicity characterization of cells treated with melittin peptides. (A,B) For the viability assay, RAW264.7 (A) or HEK293T (B) cells were treated with bee venom compounds in the indicated concentrations for 24 h. Cells were incubated with WST-8 and the formed formazan was detected by absorbance measurements. (C) For the proliferation assay, HMEC-1 cells were grown in low density and treated after 24 h with the indicated peptide (25 µg/mL) for 72 h. Cells were stained with crystal violet solution. The amount of DNA-bound crystal violet was detected by absorbance measurements. (D) The number of sub-diploidic cells was determined by staining with propidium iodide (PI) and quantified to assess apoptosis of HUVECs. Data are expressed as mean ± SEM. (A) n = 3, (B) n = 4, (C) n = 2–3, (D) n = 2. * p ≤ 0.05 versus control.
HMECs (2000 cells/well) were seeded into collagen-coated 96-well plates and grown for 24 h. Then, they were treated with melittin peptides. […] Absorbance was measured at 590 nm using a plate reader (Infinite F200Pro, Tecan, Männedorf, Switzerland). The proliferation percentage was calculated by normalizing to the untreated control (24 h) and compared to the DMSO control (0.03%) of 72 h incubation. […]

non-cancer cells = assay: Viability of non-cancer cells (RAW264.7, HEK293T, HMEC, HUVEC), overall statements; assay type: cell-based
Description: First, we studied the activity of the melittin peptides on the viability of non-cancer cells. The toxicity of all melittin variants was investigated in monocyte/macrophage-like cells (RAW264.7), human embryonic kidney 293 cells (HEK293T), human microvascular endothelial cells (HMEC), and primary human umbilical vein endothelial cells (HUVECs).
For assessing the cytotoxicity of all peptides, various cell types and assays were utilized. To determine the cell viability of HEK293T and RAW246.7 cells, the Orangu^TM assay (Cell Guidance Systems Ltd., Cambridge, UK) was used, as previously described. 2 × 10^5 HEK293T or 2 × 10^5 RAW246.7 were seeded in 96-well plates. […] After incubation, absorbance was measured at a wavelength of 450 nm with a reference at 650 nm at an EnSpire 2300 Multimode Plate Reader (Perkin Elmer, Lübeck, Germany). To calculate cell viability, the absorbance of vehicle-treated cells was set to 100%, and the melittin derivates-treated samples were correlated to them.
HMECs (2000 cells/well) were seeded into collagen-coated 96-well plates and grown for 24 h. […] Absorbance was measured at 590 nm using a plate reader (Infinite F200Pro, Tecan, Männedorf, Switzerland). The proliferation percentage was calculated by normalizing to the untreated control (24 h) and compared to the DMSO control (0.03%) of 72 h incubation. […]

RAW264.7 cells [2] = assay: Cell viability assay (WST-8/Orangu formazan) in RAW264.7 cells; assay type: cell-based, murine; conditions: RAW264.7, 25 µg/mL, 24 h, WST-8 formazan absorbance, vehicle = 100%, n = 3
Procedure: as §1
For assessing the cytotoxicity of all peptides, various cell types and assays were utilized. To determine the cell viability of HEK293T and RAW246.7 cells, the Orangu^TM assay (Cell Guidance Systems Ltd., Cambridge, UK) was used, as previously described. 2 × 10^5 HEK293T or 2 × 10^5 RAW246.7 were seeded in 96-well plates. Different concentrations (0, 0.25, 2.5, 25 µg/mL) of melittin peptides or vehicle (DMSO) were added. After 24 h of incubation at 37 °C and 5% CO2, 10 µL of Orangu^TM cell counting solution was added and incubated for 60 min. After incubation, absorbance was measured at a wavelength of 450 nm with a reference at 650 nm at an EnSpire 2300 Multimode Plate Reader (Perkin Elmer, Lübeck, Germany). To calculate cell viability, the absorbance of vehicle-treated cells was set to 100%, and the melittin derivates-treated samples were correlated to them.

Substance | inhibition of LPS-induced NO synthesis (RAW264.7 cells [1]; n = 3, listed as Melittin) | inhibition of LPS-induced NO synthesis (RAW264.7 cells [1]; n = 3, listed as melittin) | proliferation (HMEC-1 cells) | reduction of viability (non-cancer cells; Discussion, cell line not given) | reduction of cell viability (RAW264.7 cells [2]) | inhibition of LPS-induced NO synthesis (RAW264.7 cells [1]; n = 3) | viability of non-cancer (healthy) cells (non-cancer cells; summary statement, Figure 6)
melittin [Melt, reference compound] | prevent the LPS-induced NO release | prevented LPS-induced NO synthesis in a concentration-dependent manner | proliferation was hindered | 90% | more than 90% | – | –
xylopin [Xac4] | – | – | proliferation was augmented | – | – | prevented LPS-induced NO synthesis in a concentration-dependent manner; also recorded: reducing the inflammation-associated interaction of endothelial cells with leukocytes and NO synthesis | without harming healthy cells

Source: PMC9786170, “The Pharmacological Potential of Novel Melittin Variants from the Honeybee and Solitary Bees against Inflammation and Cancer” (Toxins, 2022)
